PMC12517401, “Design, synthesis, and antiproliferative activity of new 2-amino-pyrano[3,2-c]quinoline-3-carbonitriles as potential EGFR, BRAF^V600E, and HER-2 inhibitors” (RSC Advances, 2025)

Key:
[1] = system: four human cancer cell lines (A-549, MCF-7, Panc-1, HT-29); assay: Antiproliferative assay, average over four cancer cell lines (GI50); assay type: cell-based; conditions: for GI50: Homo sapiens, GI50 = mean IC50 against the four cancer cell lines; for Times less efficient than 5a (GI50): ratio of GI50 versus 5a; for Potency reduction fold compared to 5h (GI50): ratio of GI50 versus 5h
Procedure: (§1) 4.2.2. Assay for antiproliferative effect
To explore the antiproliferative potential of compounds propidium iodide fluorescence assay was performed using different cell lines such as Panc-1 (pancreas cancer cell line), MCF-7 (breast cancer […]
calculate the total nuclear DNA, a fluorescent dye (propidium iodide, PI) is used which can attach to the DNA, thus offering a quick and precise technique. PI cannot pass through the cell membrane and its signal intensity can be considered as directly proportional to quantity of cellular DNA. Cells whose cell membranes are damaged or have changed permeability are counted as dead ones. The assay was performed by seeding the cells of different cell lines at a density of 3000-7500 cells/well (in 200μl […]
atmospheric conditions. The medium was removed; the compounds were added to the plates at 10 μM concentrations (in 0.1% DMSO) in triplicates, followed by incubation for 48h. DMSO (0.1%) was used as control. After incubation, medium was removed followed by the addition of PI (25 μl, 50μg/mL in water/medium) to each well of the plates. At -80 °C, the plates were allowed to freeze for 24 h, followed by thawing at 25 °C. A fluorometer (Polar-Star BMG Tech) was used to record the readings at excitation and emission wavelengths of 530 and 620 nm for each well. The percentage cytotoxicity of compounds was calculated using the following formula:
Where ATC= Absorbance of treated cells and AC= Absorbance of control. […]
positive control in the assay. […]

[2] = Cell viability assay (MTT) on MCF-10A normal cell line; assay type: cell-based; conditions: human, MCF-10A mammary gland epithelial normal cells, MCF-10A cells, 50 μM of each compound, four days of incubation
Procedure: The human mammary gland epithelial (MCF-10A) normal cell line was used to examine the viability effects of new derivatives 5a–l using the MTT test.[33,34] Refer to Appendix A for more details.
The human mammary gland epithelium (MCF-10A) normal cell line was employed to evaluate the viability effects of novel derivatives 5a–l. The cell viability of 5a–l was assessed via the MTT assay following four days of incubation with 50 μM of each compound on MCF-10A cells.[33,34] […]
4.2. Biological evaluation
4.2.1 Cell Viability assay (MTT assay)
MTT assay was performed to investigate the effect of the synthesized compounds on mammary epithelial cells (MCF-10A). The cells were propagated in medium consisting of Ham's F-12 medium/ Dulbecco's modified Eagle's medium (DMEM) (1:1) supplemented with 10% foetal calf serum, 2 mM glutamine, insulin (10 μg/mL), hydrocortisone (500 ng/mL) and epidermal growth factor (20 ng/mL). Trypsin ethylenediamine tetra acetic acid (EDTA) was used to passage the cells after every 2-3 days. 96-well flat-bottomed cell culture plates were used to seed the cells at a density of 10^4 cells mL-1. The medium was aspirated from all the wells of culture plates after 24 h followed by the addition of synthesized compounds (in 200 μL medium to yield a final concentration of 0.1% (v/v) dimethyl sulfoxide) into individual wells of the plates. Four wells were designated to a single compound. The plates were allowed to incubate at 37°C for 96 h. Afterwards, the medium was aspirated and 3-[4,5-dimethylthiazol-2-yl]-2,5-diphenyltetrazolium bromide (MTT) (0.4 mg/mL) in medium was added to each well and subsequently incubated for 3 h. The medium was aspirated and 150 μL dimethyl sulfoxide (DMSO) was added to each well. The plates were vortexed followed by the measurement of absorbance at 540 nm on a microplate reader. The results were presented as inhibition (%) of proliferation in contrast to controls comprising 0.1% DMSO. […]

[3] = molecular target: T1, HER-2 (Homo sapiens, UniProt P04626); assay: HER-2 inhibitory assay (ADP-Glo kinase assay); assay type: biochemical; conditions: read-out: HER-2 inhibition IC50 ± SEM
T1 construct: purchased Abcam ab60866
Procedure: The results are presented as IC50 values. Lapatinib served as the reference medication. Appendix A describes more experimental details.
Lapatinib functioned as the reference drug. […]
4.2.5. HER-2 inhibitory assay
The ADP-Glo™ Kinase Assay was used for kinase activity detection, related kinases information:
HER-2 (ab60866, Abcam), with a concentration of 100 ng/mL. Target compounds were dissolved in DMSO to obtain drug solutions with different concentrations, and the compound concentrations in the final reaction system (100 μL) were 1 nM, 20 nM, 40 nM, 80 nM, and 100 nM, respectively. 10μL of the solution containing compounds was transferred to a 96-well plate, then added 40 μL of 1 × kinase buffer (50 mM HEPES, pH 7.5) to each well, and mixed the mixture in the 96-well plate on a shaker for 10 min. Next, added 25 μL of ADP-Glo™ reagent to the above wells, mixed and incubated for another 40 min. Distributed 10 μL kinase detection reagent to the reaction and incubated for 30 min. Finally, the full-wavelength microplate reader was used to record the OD value.
4.3. Statistical analysis
Computerized Prism 5 program was used to statistically analyzed data using one-way ANOVA test followed by Tukey’s as post ANOVA for multiple comparison at P ≤.05. Data were presented as […]

[4] = molecular target: BRAF^V600E (Mus musculus, UniProt P28028, V585E); assay: BRAF^V600E inhibitory assay
[5] = system: lung cancer (A-549); assay: Antiproliferative assay, A-549; assay type: cell-based; conditions: Homo sapiens, A549; A-549 lung cancer cell line; read-out: Antiproliferative activity IC50 ± SEM (nM) A-549
Procedure: as §1
(§2) To explore the antiproliferative potential of compounds propidium iodide fluorescence assay was performed using different cell lines such as Panc-1 (pancreas cancer cell line), MCF-7 (breast cancer cell line), HT-29 (colon cancer cell line) and A-549 (epithelial cancer cell line), respectively. To calculate the total nuclear DNA, a fluorescent dye (propidium iodide, PI) is used which can attach to the DNA, thus offering a quick and precise technique. PI cannot pass through the cell membrane and its signal intensity can be considered as directly proportional to quantity of cellular DNA. Cells whose cell membranes are damaged or have changed permeability are counted as dead ones. The assay was performed by seeding the cells of different cell lines at a density of 3000-7500 cells/well (in 200μl medium) in culture plates followed by incubation for 24h at 37 °C in humidified 5%CO2/95% air atmospheric conditions. The medium was removed; the compounds were added to the plates at 10 μM concentrations (in 0.1% DMSO) in triplicates, followed by incubation for 48h. DMSO (0.1%) was used as control. After incubation, medium was removed followed by the addition of PI (25 μl, 50μg/mL in water/medium) to each well of the plates. At -80 °C, the plates were allowed to freeze for 24 h, followed by thawing at 25 °C. A fluorometer (Polar-Star BMG Tech) was used to record the readings at excitation and emission wavelengths of 530 and 620 nm for each well. The percentage cytotoxicity of compounds was calculated using the following formula:
(§3) Where ATC= Absorbance of treated cells and AC= Absorbance of control. Erlotinib was used as positive control in the assay. […]
(1 picture or pasted object on this page, not shown here)

[6] = system: colon cancer (HT-29); assay: Antiproliferative assay, HT-29; assay type: cell-based; conditions: Homo sapiens; HT-29 colon cancer cell line; read-out: Antiproliferative activity IC50 ± SEM (nM) HT-29
Procedure: as §1, §2, §3

[7] = system: pancreatic cancer (Panc-1); assay: Antiproliferative assay, Panc-1; assay type: cell-based; conditions: Homo sapiens; Panc-1 pancreatic cancer cell line; read-out: Antiproliferative activity IC50 ± SEM (nM) Panc-1
Procedure: as §1, §2, §3

[8] = system: breast cancer (MCF-7); assay: Antiproliferative assay, MCF-7; assay type: cell-based, human; conditions: for IC50: Homo sapiens, MCF7, MCF-7 breast cancer cell line, read-out: Antiproliferative activity IC50 ± SEM (nM) MCF-7
Procedure: as §1, §2, §3

[9] = molecular target: EGFR (Homo sapiens, UniProt P00533); assay: EGFR-TK inhibitory assay
Sequence of EGFR (P00533 669-1210): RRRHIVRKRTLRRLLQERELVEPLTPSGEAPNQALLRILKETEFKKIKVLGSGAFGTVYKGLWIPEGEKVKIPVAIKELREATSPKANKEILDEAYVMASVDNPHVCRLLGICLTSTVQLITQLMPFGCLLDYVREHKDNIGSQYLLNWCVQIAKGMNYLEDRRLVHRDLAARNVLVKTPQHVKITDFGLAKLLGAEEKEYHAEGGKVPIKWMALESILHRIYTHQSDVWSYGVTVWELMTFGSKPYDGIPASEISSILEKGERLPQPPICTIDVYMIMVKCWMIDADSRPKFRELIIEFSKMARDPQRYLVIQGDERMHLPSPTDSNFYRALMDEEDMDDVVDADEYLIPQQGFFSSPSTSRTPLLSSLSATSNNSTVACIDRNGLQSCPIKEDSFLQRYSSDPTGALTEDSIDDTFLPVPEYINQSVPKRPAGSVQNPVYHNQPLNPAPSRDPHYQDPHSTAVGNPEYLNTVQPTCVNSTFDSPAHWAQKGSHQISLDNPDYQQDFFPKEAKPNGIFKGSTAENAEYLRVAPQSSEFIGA
Procedure: Baculoviral expression vectors including pBlueBacHis2B and pFASTBacHTc were used separately
upstream to the EGFR sequence comprised a sequence that encoded (His)6. Sf-9 cells were infected for 72h for protein expression. The pellets of Sf-9 cells were solubilized in a buffer containing sodium vanadate (100 μM), aprotinin (10 μg/mL), triton (1%), HEPES buffer(50mM), ammonium molybdate (10 μM), benzamidine HCl (16 μg/mL), NaCl (10 mM),leupeptin (10 μg/mL) and pepstatin (10 μg/mL) at 0°C for 20 min at pH 7.4, followed by centrifugation for 20 min. To eliminate the nonspecifically bound material, a Ni-NTA super flow packed column was used to pass through and wash the crude extract supernatant first with 10mM and then with 100 mM imidazole. Histidine-linked proteins were first eluted with 250 and then with 500 mM imidazole subsequent to dialysis against NaCl (50 mM), HEPES (20 mM), glycerol (10%) and 1 μg/mL each of aprotinin, leupeptin and pepstatin for 120 min. The purification was performed either at 4 °C or on ice. To record autophosphorylation level, EGFR kinase assay was carried out on the basis of DELFIA/Time-Resolved Fluorometry. The compounds were first dissolved in DMSO absolute, subsequent to dilution to appropriate concentration using HEPES (25 mM) at pH 7.4. Each compound (10 μL) was incubated with recombinant enzyme (10 μL, 5 ng for EGFR, 1:80 dilution in 100 mM HEPES) for 10 min at 25 °C, subsequent to the addition of 5X buffer (10 μL, containing 2 mM MnCl2, 100 μM Na3VO4, 20 mM HEPES and 1 mM DTT) and ATP-MgCl2 (20 μL, containing 0.1 mM ATP and 50 mM MgCl2) and incubation for 1h. The negative and positive controls were included in each plate by the incubation of enzyme either with or without ATP-MgCl2. The liquid was removed after incubation and the plates were washed thrice using a wash buffer. The Europium-tagged antiphosphotyrosine antibody (75 μL, 400 ng) was added to each well followed by incubation of 1h
and then washing of the plates using buffer. The enhancement solution was added to each well and
autophosphorylation percentage inhibition by compounds was calculated using the following
calculated. The majority of signals detected by antiphosphotyrosine antibody were from EGFR because the enzyme preparation contained low impurities.

Sequence of BRAF^V600E (P28028 whole entry V585E): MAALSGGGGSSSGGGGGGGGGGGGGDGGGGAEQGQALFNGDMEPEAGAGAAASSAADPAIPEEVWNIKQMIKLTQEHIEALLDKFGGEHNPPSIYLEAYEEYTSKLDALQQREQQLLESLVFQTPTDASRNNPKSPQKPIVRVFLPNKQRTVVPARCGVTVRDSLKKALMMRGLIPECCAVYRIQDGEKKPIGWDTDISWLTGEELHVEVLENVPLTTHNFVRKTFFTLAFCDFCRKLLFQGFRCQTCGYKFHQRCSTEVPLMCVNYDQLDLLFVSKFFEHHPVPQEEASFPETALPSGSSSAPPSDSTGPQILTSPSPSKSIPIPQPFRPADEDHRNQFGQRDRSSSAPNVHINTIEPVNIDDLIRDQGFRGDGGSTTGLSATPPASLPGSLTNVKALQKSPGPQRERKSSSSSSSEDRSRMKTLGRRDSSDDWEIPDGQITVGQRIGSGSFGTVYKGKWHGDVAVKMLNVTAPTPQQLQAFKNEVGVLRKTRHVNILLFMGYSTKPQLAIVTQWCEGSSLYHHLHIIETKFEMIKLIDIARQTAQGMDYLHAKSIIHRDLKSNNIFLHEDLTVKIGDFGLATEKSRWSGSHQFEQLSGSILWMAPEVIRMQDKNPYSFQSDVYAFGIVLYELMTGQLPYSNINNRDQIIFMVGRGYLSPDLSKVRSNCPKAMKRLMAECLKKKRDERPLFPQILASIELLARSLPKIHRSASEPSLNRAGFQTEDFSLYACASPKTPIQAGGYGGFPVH
T1 sequence (P04626 23-1255): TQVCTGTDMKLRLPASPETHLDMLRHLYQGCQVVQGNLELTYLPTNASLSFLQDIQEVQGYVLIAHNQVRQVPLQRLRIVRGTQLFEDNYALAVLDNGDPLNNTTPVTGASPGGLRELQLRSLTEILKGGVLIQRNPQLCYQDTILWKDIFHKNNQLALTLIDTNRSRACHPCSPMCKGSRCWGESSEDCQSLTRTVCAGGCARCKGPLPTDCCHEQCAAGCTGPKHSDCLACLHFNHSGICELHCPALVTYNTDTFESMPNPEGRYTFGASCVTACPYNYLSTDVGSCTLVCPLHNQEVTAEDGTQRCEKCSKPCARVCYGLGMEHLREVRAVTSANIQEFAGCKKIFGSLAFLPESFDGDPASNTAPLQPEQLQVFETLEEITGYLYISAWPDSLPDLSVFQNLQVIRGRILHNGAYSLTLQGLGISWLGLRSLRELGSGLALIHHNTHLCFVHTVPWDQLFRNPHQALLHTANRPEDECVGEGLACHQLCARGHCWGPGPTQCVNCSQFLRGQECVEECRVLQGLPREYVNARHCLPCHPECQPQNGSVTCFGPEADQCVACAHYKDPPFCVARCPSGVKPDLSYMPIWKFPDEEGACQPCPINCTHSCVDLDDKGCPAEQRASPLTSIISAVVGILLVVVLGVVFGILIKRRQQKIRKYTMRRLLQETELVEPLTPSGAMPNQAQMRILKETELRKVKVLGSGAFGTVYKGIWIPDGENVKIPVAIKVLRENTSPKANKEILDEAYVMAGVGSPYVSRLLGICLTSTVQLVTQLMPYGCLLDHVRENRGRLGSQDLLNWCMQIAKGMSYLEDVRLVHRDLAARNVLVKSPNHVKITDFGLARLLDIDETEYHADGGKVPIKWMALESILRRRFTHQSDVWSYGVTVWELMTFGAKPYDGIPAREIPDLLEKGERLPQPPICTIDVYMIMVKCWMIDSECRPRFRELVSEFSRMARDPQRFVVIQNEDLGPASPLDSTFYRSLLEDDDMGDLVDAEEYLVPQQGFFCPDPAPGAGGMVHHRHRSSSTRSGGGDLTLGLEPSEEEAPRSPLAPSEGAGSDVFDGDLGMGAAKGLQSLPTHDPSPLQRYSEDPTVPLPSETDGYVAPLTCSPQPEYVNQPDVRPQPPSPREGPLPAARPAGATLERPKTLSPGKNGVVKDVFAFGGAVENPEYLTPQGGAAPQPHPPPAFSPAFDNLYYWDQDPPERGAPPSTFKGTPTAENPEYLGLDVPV

Row | SMILES | GI50 [1] | IC50 [3] | IC50 [4] | IC50 [5] | IC50 [6] | IC50 [7] | IC50 [8] | IC50 [9] | Fold less potent than 5e, EGFR ([9]; ratio of EGFR IC50 versus 5e) | Times less efficient than 5a (GI50) [1] | Potency reduction fold compared to 5h (GI50) [1] | Times more effective than erlotinib (GI50) ([1]; ratio of GI50 versus erlotinib, four cancer cell lines) | Fold more potency than erlotinib, EGFR ([9]; ratio of EGFR IC50 versus erlotinib) | viability at 4 days, 50 µM [2] | Potency fold greater than erlotinib, MCF-7 ([8]; ratio of IC50 versus erlotinib, MCF-7)
1 | COc1ccc2[nH]c(=O)c3c(c2c1)OC(N)=C(C#N)C3c1ccccc1 (stereo not drawn) [Compound 5c, 2-Amino-9-methoxy-5-oxo-4-phenyl-5,6-dihydro-4H-pyrano[3,2-c]quinoline-3-carbonitrile] | 66 nM |  |  | 66 ± 6 nM | 70 ± 6 nM | 68 ± 6 nM | 59 ± 5 nM |  |  | 2.1 fold | 2.5 fold |  |  | 91% | 
2 | COc1ccc2[nH]c(=O)c3c(c2c1)OC(N)=C(C#N)C3c1ccc(Cl)cc1 (stereo not drawn) [Compound 5l, 2-Amino-9-methoxyl-4-(4-chlorophenyl)-5-oxo-5,6-dihydro-4H-pyrano[3,2-c]quinoline-3-carbonitrile] | 61 nM |  |  | 60 ± 5 nM | 63 ± 5 nM | 62 ± 5 nM | 56 ± 5 nM |  |  |  | 2.3 fold |  |  | 92% | 
3 | COc1ccc(C2C(C#N)=C(N)Oc3c2c(=O)[nH]c2ccc(C)cc32)cc1 (stereo not drawn) [Compound 5g, 2-Amino-4-(4-methoxylphenyl)-9-methyl-5-oxo-5,6-dihydro-4H-pyrano[3,2-c]quinoline-3-carbonitrile] | 72 nM |  |  | 71 ± 6 nM | 74 ± 6 nM | 74 ± 6 nM | 67 ± 6 nM |  |  |  | 2.6 fold |  |  | 93% | 
4 | COc1ccc(C2C(C#N)=C(N)Oc3c2c(=O)[nH]c2ccccc32)cc1 (stereo not drawn) [Compound 5f, 2-Amino-4-(4-methoxylphenyl)-5-oxo-5,6-dihydro-4H-pyrano[3,2-c]quinoline-3-carbonitrile] | 54 nM |  |  | 54 ± 4 nM | 56 ± 5 nM | 56 ± 5 nM | 50 ± 4 nM |  |  |  |  |  |  | 92% | 

Now those with a lower GI50 [1], led by results:

Row | GI50 [1] | IC50 [3] | IC50 [4] | IC50 [5] | IC50 [6] | IC50 [7] | IC50 [8] | IC50 [9] | Fold less potent than 5e, EGFR ([9]; ratio of EGFR IC50 versus 5e) | Times less efficient than 5a (GI50) [1] | Potency reduction fold compared to 5h (GI50) [1] | Times more effective than erlotinib (GI50) ([1]; ratio of GI50 versus erlotinib, four cancer cell lines) | Fold more potency than erlotinib, EGFR ([9]; ratio of EGFR IC50 versus erlotinib) | SMILES | viability at 4 days, 50 µM [2] | Potency fold greater than erlotinib, MCF-7 ([8]; ratio of IC50 versus erlotinib, MCF-7)
5 | 48 nM |  |  | 48 ± 4 nM | 50 ± 5 nM | 48 ± 4 nM | 44 ± 4 nM |  |  | 1.5 fold |  |  |  | Cc1ccc2[nH]c(=O)c3c(c2c1)OC(N)=C(C#N)C3c1ccccc1 (stereo not drawn) [Compound 5b, 2-Amino-9-methyl-5-oxo-4-phenyl-5,6-dihydro-4H-pyrano[3,2-c]quinoline-3-carbonitrile] | 90% | 
6 | 43 nM |  |  | 43 ± 4 nM | 46 ± 4 nM | 44 ± 4 nM | 38 ± 3 nM |  |  |  |  |  |  | N#CC1=C(N)Oc2c(c(=O)[nH]c3ccccc23)C1c1ccc(Cl)cc1 (stereo not drawn) [Compound 5j, 2-Amino-4-(4-chlorophenyl)-5-oxo-5,6-dihydro-4H-pyrano[3,2-c]quinoline-3-carbonitrile] | 91% | 
7 | 39 nM |  |  | 39 ± 3 nM | 42 ± 3 nM | 42 ± 3 nM | 34 ± 3 nM |  |  |  |  |  |  | Cc1ccc2[nH]c(=O)c3c(c2c1)OC(N)=C(C#N)C3c1ccc(Cl)cc1 (stereo not drawn) [Compound 5k, 2-Amino-9-methyl-4-(4-chlorophenyl)-5-oxo-5,6-dihydro-4H-pyrano[3,2-c]quinoline-3-carbonitrile] | 93% | 
8 | 35 nM | 39 ± 2 nM | 83 ± 5 nM | 35 ± 3 nM | 37 ± 3 nM | 36 ± 3 nM | 31 ± 2 nM | 87 ± 5 nM |  |  |  |  |  | Cc1ccc2c3c(c(=O)[nH]c2c1)C(c1ccccc1)C(C#N)=C(N)O3 (stereo not drawn) [Compound 5d, 2-Amino-8-methyl-5-oxo-4-phenyl-5,6-dihydro-4H-pyrano[3,2-c]quinoline-3-carbonitrile] | 93% | 
9 | 31 nM | 36 ± 2 nM | 79 ± 5 nM | 32 ± 2 nM | 32 ± 2 nM | 32 ± 2 nM | 27 ± 2 nM | 84 ± 5 nM | 1.2 fold |  |  |  |  | N#CC1=C(N)Oc2c(c(=O)[nH]c3ccccc23)C1c1ccccc1 (stereo not drawn) [Compound 5a, 2-Amino-5-oxo-4-phenyl-5,6-dihydro-4H-pyrano[3,2-c]quinoline-3-carbonitrile] | 92% | 
10 | 26 nM | 21 ± 1 nM | 62 ± 3 nM | 26 ± 2 nM | 27 ± 2 nM | 28 ± 2 nM | 24 ± 2 nM | 71 ± 4 nM |  |  |  | 1.3 fold | 1.2 fold | Cn1c(=O)c2c(c3ccccc31)OC(N)=C(C#N)C2c1ccccc1 (stereo not drawn) [Compound 5e, 2-Amino-6-methyl-5-oxo-4-phenyl-5,6-dihydro-4H-pyrano[3,2-c]quinoline-3-carbonitrile] | 90% | 1.7 fold
